Consider 87 compounds from a melting point compilation (Tetko et al.; mined from patent text by program, amines drawn as free bases though some values may be those of a salt).

A value given as a limit tells only on which side of the number the result lay.

Regarding `CN1CCN(c2nc3sc4c(NCc5ccccn5)ncnc4c3c3c2COC(C)(C)C3)CC1`, the melting point (usually the temperature of the solid-liquid transition) is 218 to 219 °C.
The compound `OC(=S)Cc1cccc2ccccc12` returned a melting point of 106 °C.
Turning to `CC1(C)OC(=O)Nc2ccc(/C=C/C(N)=O)cc21`, the melting point was in the range of 196 to 198 °C.
Next, `O=C(c1nc(-c2ccccc2)nc2ccccc12)N1CCCC1`: 153 °C.
In the case of `CCCCCCOc1ccc(NC(=O)N(C)c2cccc(-c3ccc(CC4SC(=O)NC4=O)cc3)c2)cc1` (configuration not stated) it was 146 to 148 °C; in that of `C#CCCCC1(S(=O)(=O)c2ccc(C)cc2)SC(=O)NC1=O` (configuration not stated), 226 °C.
Take `NNc1nc(Cl)nc2cc3c(cc12)OCO3`: the melting point is over 280 °C.
In the case of `CN(C)Cn1nc(-c2ccncc2)n(-c2ccccc2)c1=S` it was 173 to 174 °C; in that of `N#Cc1c(N2CCN(CCCCCC(=O)N3Cc4ccccc4C3)CC2)cccc1C(F)(F)F`, 160 °C.
Next, `Cc1cc(-c2cnn3c(C(F)(F)F)cc(-c4ccc(C(F)(F)F)c(F)c4)nc23)cc(C)n1`: 245 °C; `CC(C)C[C@H](NC(=O)OCc1ccccc1)C(=O)N[C@@H](Cc1ccccc1)C(=O)CSCc1ccc(Cl)s1`: 105 to 107 °C.
The compound `O=C1CCCCCCCCC=CCCCCCCCCC1O` (configuration not stated) came in with a melting point of 66 to 67 °C.
Next, `COc1ccc(-c2cc(F)cc3c2NC(CN)CO3)cc1` (configuration not stated): 72 °C.
`Cc1cc2c(s1)Oc1cccc(C)c1N=C2N1CCN(C)CC1` registered a melting point of 114 to 117 °C.
Next, `COc1cc(C(C)=O)ccc1OCCCCCCl`: 57 to 58 °C; `Cc1cc(C)c(C#N)c(SSc2ccc([N+](=O)[O-])cc2C(Cl)(Cl)Cl)n1`: 132 °C; `COc1ccc(-c2nc(S(C)(=O)=O)ncc2C(=O)N2CCOCC2)cc1OC`: 77 °C.
Next, `Cc1ccc(C(=O)c2cc(CN3CCOCC3)c(O)c(C(C)(C)C)c2)cc1`: 131 to 133 °C; `Cc1cc2c(s1)Oc1ccccc1N=C2N1CCN(CCO)CC1`: 87 to 89 °C; `CC(C)(C)Oc1ccc(CCC(=O)O)cc1`: 29 to 31 °C.
In the case of `O=S1(=O)NCN(C2CC2)c2cc(Br)cc(C(F)(F)F)c21` it was 200 to 201 °C; in that of `CS(=O)(=O)Nc1ccc(F)c(C(=O)CBr)c1`, 110 to 113 °C.
`CCN1C(=O)C(C)(C)C(=O)N(C)c2cc(CN(CCn3cc(C)c4sccc4c3=O)Cc3cnccc3C)ccc21` had a melting point of 174 to 175 °C.
Next, `Cc1ccc(-c2c3ccccc3nc3ccc(N(S(C)(=O)=O)S(C)(=O)=O)cc23)cc1`: 217 to 219 °C.
In the case of `Fc1ccc(Cn2c(NC3CCN(CCCCNc4nc5cnccc5[nH]4)CC3)nc3ccccc32)cc1` it was 228 °C; in that of `O=C(NC(=O)c1c(Cl)cccc1OCc1ccccc1)Nc1ccc(C(F)(F)F)cc1`, 264 °C; in that of `c1ccc2c(c1)Cc1cc(C3(Cn4ccnc4)OCCO3)ccc1-2`, 163 to 166 °C.
In the case of `CCCCc1nc2c(N)nc3ccccc3c2n1CCCCNS(=O)(=O)c1ccccc1` it was 75.5 to 79 °C.
For `O=C(c1ccccc1F)c1cc(Cl)ccc1CCCN1C(=O)c2ccccc2C1=O`, the melting point fell in the range of 98 to 99 °C.
In the case of `CCOCc1nc2c(Cl)nc(C)c(C)c2n1NC1CCOCC1` it was 137 to 139 °C.
`COc1cc(N)c([N+](=O)[O-])cc1I` yielded a melting point of 189 °C.
In the case of `CCOC(=O)C1CCN(C(=O)OC)CC1=O` (configuration not stated) it was 36 to 38 °C; in that of `CCN(CC)CCC(=O)OCC1CC(c2ccc(-c3ccc(N4CC(Cn5ccnn5)OC4=O)cc3F)cn2)=NO1` (configuration not stated), 167 °C.
In the case of `CCCCN(Cc1ccc(-c2ccccc2-c2nnn[nH]2)cc1)c1ncc(C(=O)O)s1` it was 183 to 184 °C; in that of `O=C(Nc1ccc(C(CC2CCCC2)C(=O)Nc2nccs2)cc1)c1ccncc1` (configuration not stated), 225 to 230 °C; in that of `O=C(Cl)c1ccc(Cl)c(S(=O)(=O)NC2CCCCC2)c1`, 119 °C.
Next, `NNC(=O)NC(c1cccc(Cl)c1)c1ccnc2ccccc12` (configuration not stated): 187 °C; `O=C(N[C@H](Cc1ccc(C(F)(F)F)cc1)[C@@H](O)c1ccc(F)cc1)c1cccc2c1C(=O)c1ccccc1-2` (racemic): 185 to 186 °C.
The compound `NNC(=O)c1ccc(OCc2cccc(Br)c2)cc1O` showed a melting point of 201 to 203 °C.
For `OC(Cn1cncn1)(c1ccccc1)C1OC1c1ccccc1Cl` (configuration not stated), the melting point lay in the range of 180 to 182 °C.
Consider `CCOC(=O)CN(Cc1ccccc1)C(=S)CCc1nc2c(F)c(F)cc(F)c2s1`, for which the melting point lay within 86 to 88 °C.
Next, `O=C(O)c1ccc(C(F)(F)F)cc1SC1CCCCC1`: 115 to 116 °C.
Next, `C=C(C)C1CCC2(C(=O)O)CCC3(C)C(CCC4C5(C)CCC(O)C(C)(C)C5CCC43C)C12` (configuration not stated): 291 to 292 °C; `COC(=O)[C@@H]1C[C@H](OS(=O)(=O)c2ccccc2Br)C(=O)[C@@H]2[C@@]3(C)C[C@@H](c4ccoc4)OC(=O)[C@H]3CC[C@]21C`: 162 to 163 °C.
Next, `CCCCNC(=O)Nc1ccccc1CCc1cc(C(C)(C)C)c(O)c(C(C)(C)C)c1`: 133 to 134 °C; `CC(C)N[C@@H]1Cc2cccc(O)c2C[C@H]1O` (relative stereo): 138 to 140 °C; `Cc1nc2ccnn2c2c1CCN2C(C)(C)C`: 144 to 146 °C.
As for `CC(C)(C)OC(=O)NCCCn1c(-c2ccc([N+](=O)[O-])cc2)csc1=Nc1ccccc1`, the melting point was 254 to 257 °C.
With `CC(F)(F)C1(O)c2cc(Cl)ccc2Nc2ncccc21` (configuration not stated), the melting point lay in the range of 188 to 190 °C.
Turning to `COCn1ncc2cc(-c3nnc(S)o3)ccc21`, the melting point was over 300 °C.
In the case of `CCOCCCOC(C)Cc1ccc(-c2ccc(O)cc2)cc1` (single isomer, unassigned; (-)) it was 53 to 55 °C.
Next, `CC(C)(C)NS(=O)(=O)c1c[nH]c2ccccc12`: 157 to 158 °C; `Cc1c(C(=O)Nc2ccc(OCCCN3CCOCC3)c(C#N)c2)cnn1-c1ccc(C(F)(F)F)cc1`: 172 to 174 °C.
`CC(=O)n1nc(CN2CCc3ccccc3C2)c2ccc(F)cc21` had a melting point of 106 to 107 °C.
Next, `O=C1Nc2ccccc2N(C(=O)CCN2CCCCC2)c2ccc(Cl)cc21`: 170 to 172 °C.
Turning to `CNc1c(NCCSCc2csc(CN(C)C)n2)c(=O)c1=O`, the melting point lay in the range of 163 to 167 °C.
In the case of `CCCOc1ccc(C)cc1C(=N)OCC` it was 148 to 150 °C; in that of `Cc1cc(Sc2ccc3nc(COc4ccc(CC5SC(=O)NC5=O)cc4)n(C)c3n2)cc(C)c1NC(=O)Nc1ccc(C(F)(F)F)cc1` (configuration not stated), 193 to 195 °C; in that of `Cc1nc(N2CCC(Cc3ccc(OC(F)F)cc3)C2=O)sc1C(=O)NCc1ccccc1` (configuration not stated), 132 to 133 °C.
On to `CC(C)(C)OC(=O)n1ccc2cc([N+](=O)[O-])ccc21`, for which the melting point was in the range of 135 to 137 °C.
Take `CCNC(=O)NC(CC)c1ccc(Cl)c2nc3n(c12)CCCN3c1ccc(Cl)cc1Cl` (configuration not stated): the melting point lay in the range of 250 to 252 °C.
Next, `Nc1c(-c2ccc(-c3ccc(F)cc3)c(F)c2)nc2ccc(F)cc2c1C(=O)O`: 245 to 247 °C; `CCCc1nc(C=NNC(=O)OCC)c[nH]1`: 180 to 182 °C.
In turn, `CCc1noc(-c2ncn(-c3cccnc3)c2C)n1` came in with a melting point of 127 to 128 °C.
In the case of `COc1cc(S(=O)(=O)CCO)ccc1[N+](=O)[O-]` it was 95 to 96 °C; in that of `Cc1cc2c(cc1C1=NNC(=O)CC1)N(C)C(=O)CO2`, 227 to 228 °C; in that of `[N-]=[N+]=NCc1n[nH]nc1-c1ccc(Cl)cc1C(=O)c1ccccc1`, 128 to 131 °C.
In the case of `CCOC(=O)C1=Cc2cc(C(F)(F)F)ccc2NC1C(F)(F)F` (configuration not stated) it was 138 to 139 °C; in that of `O=Cc1cnc(Br)cn1`, 56 to 58 °C; in that of `CCOC(=O)c1ccc(N(Cc2ccc(Cl)cc2)C(=O)OCC)cc1`, 43 to 46 °C.
`COc1ccc(CN(CCN(C)CCCCCCNC(=C[N+](=O)[O-])NCCCOc2cccc(CN3CCCCC3)c2)c2ccccn2)cc1` registered a melting point of 73 °C.
Next, `CCCOc1ccc(S(=O)(=O)Nc2ccc3[nH]ncc3c2)cc1-c1nc2cc(N)c(N)cc2c(=O)[nH]1`: 261 to 263 °C; `CC1OC(OCc2ccccc2)C(F)C(O)C1O` (configuration not stated): 124 to 126 °C.
Next, `COC(C)(C)[C@H]1CCCN1NC(=O)Nc1cccc2c1C(=O)c1c-2n[nH]c1-c1ccc(N2CCNCC2)cc1`: 218 °C; `OCC(O)Cc1cccc(Cc2ccccc2)c1OCc1ccccc1` (configuration not stated): 55 to 58 °C.
The compound `O=C(Cc1ccccc1Nc1c(Cl)cccc1Cl)OCCl` came in with a melting point of 89 to 91 °C.
On to `CCOC(=O)n1nc(-c2cc(C(C)(C)C)c(O)c(C(C)(C)C)c2)c2ccc(C)nc21`, for which the melting point lay in the range of 208 to 209 °C.
Regarding `Cc1nc2cc(C(F)(F)F)c(Cl)c([N+](=O)[O-])c2n1N(C)C`, the melting point was in the range of 160 to 162 °C.
In the case of `Cc1cc(C)c2nn3c(SCc4ccccc4)nc(N)nc3c2n1` it was 263 to 265 °C; in that of `CC(=O)Nn1cc(-c2cccnc2)nc1Cl`, 129 to 131 °C.
In the case of `Nc1ccc2c(c1)c(=O)oc1cccc(O)c12` it was over 260 °C; in that of `O=C(O)COc1c[nH]c(CCl)cc1=O`, 150 to 155 °C; in that of `CCc1c(-c2ccc(OC)cc2)c2cc(C(C)=O)c3cc(OC)cc1n32`, 137 to 139 °C.
In the case of `CCCCCCCCNC(=O)OCc1ccccc1[N+](=O)[O-]` it was 70 to 71 °C; in that of `CCOC(=O)c1ccc(N2CCC(N)CC2)nc1`, 148 to 150 °C; in that of `O=C1CS[C@@H]2[C@H](NC(=O)Cc3ccccc3)C(=O)N2C1`, 183 °C.
For `CC(NC(=O)c1ccc(C2(C)C(=O)Nc3cc(Cl)cc(Cl)c3C2=O)cc1)c1ccccc1` (configuration not stated), the melting point was 110 to 115 °C.
